Results reported in patent US5919782A, “Heterocyclic compounds having antidiabetic, hypolipidaemic, antihypertensive properties, process for their preparation and pharmaceutical compositions containing them” (Dr. Reddy's Research Foundation, priority 1996, dated 1999).
Counter-ions that a name gives are not always drawn.

What was measured:
C57 BL/KsJ-db/db mice = assay: blood sugar and triglycerides lowering activity in db/db mice; assay type: in vivo, mouse (male C57 BL/KsJ-db/db); conditions: for Reduction in Blood Glucose Level / Triglyceride Lowering: oral gavage daily for 6 days, db/db mice
From the text: Mutation in colonies of laboratory animals and different sensitivities to dietary regimens have made the development of animal models with non-insulin dependent diabetes associated with obesity and insulin resistance possible. Genetic models such as db/db and ob/ob (See Diabetes, (1982) 31(1): 1-6) in mice and fa/fa and zucker rats have been developed by the various laboratories for understanding the pathophysiology of disease and testing the efficacy of new antidiabetic compounds (Diabetes, (1983) 32: 830-838; Annu. Rep. Sankyo Res. Lab. (1994). 46: 1-57). The homozygous animals, C57 BL/KsJ-db/db mice developed by Jackson Laboratory, US, are obese, hyperglycemic, hyperinsulinemic and insulin resistant (J. Clin. Invest., (1990) 85: 962-967), whereas heterozygous are lean and normoglycemic. In db/db model, mice progressively develop insulinopenia with age, a feature commonly observed in late stages of human type II diabetes when blood sugar levels are insufficiently controlled. The state of pancreas and its course vary according to the models. Since this model resembles that of type II diabetes mellitus, the compounds of the present invention were tested for blood sugar and triglycerides lowering activities.
Male C57 BL/KsJ-db/db mice of 8 to 14 weeks age, having body weight range of 35 to 60 grams, procured from the Jackson Laboraotory, USA, were used in the experiment. The mice were provided with standard feed (National Institute of Nutrition, Hyderabad, India) and acidified water, ad libitum. The animals having more than 300 mg/dl blood sugar were used for testing. The number of animals in each group was 4.
The random blood sugar and triglyceride levels were measured by collecting blood (100 μl) through orbital sinus, using heparinised capillary in tubes containing EDTA which was centrifuged to obtain plasma. The plasma glucose and triglyceride levels were measured spectrometrically, by glucose oxidase and glycerol-3-PO4 oxidase/peroxidase enzyme (Dr. Reddy's Lab. Diagnostic Division Kits, Hyderabad, India) methods respectively. On 6th day the blood samples were collected one hour after administration of test compounds/vehicle for assessing the biological activity.
Test compounds were suspended on 0.25% carboxymethyl cellulose or water (for water soluble compounds) and administered to test group at a dose of 10 to 30 mg/kg through oral gavage daily for 6 days. The control group received vehicle (dose 10 ml/kg).
The blood sugar and triglycerides lowering activities of the test compound was calculated according to the formula: [formula] ZC=Zero day control group value DC=Zero day treated group value
TC=Control group value on test day
DT=Treated group value on the test day

rats = assay: Subacute toxicity in rats; assay type: in vivo; conditions: 100 mg/kg orally
Procedure: Groups of 20 rats, consisting of 10 males and 10 females, weighing between 120 to 140 gm, received orally 100 mg/kg of compound of Example 6 for 28 days. The behavioral changes and body weights were monitored daily. The rats were sacrificed on the 29th day and blood was collected for hematological and biochemical estimations. All vital organs were examined both macroscopically and microscopically.

Compound	Reduction in Blood Glucose Level (C57 BL/KsJ-db/db mice; 30 mg/kg)	Triglyceride Lowering (C57 BL/KsJ-db/db mice; 30 mg/kg)	Reduction in Blood Glucose Level (C57 BL/KsJ-db/db mice; 10 mg/kg)	Triglyceride Lowering (C57 BL/KsJ-db/db mice; 10 mg/kg)	also measured
Cc1c(C)c2c(c(C)c1O)CCC(C)(COc1ccc(CC3SC(=O)NC3=O)cc1)O2 (stereo not drawn) [Troglitazone, reference compound]					reduction in random blood sugar level (C57 BL/KsJ-db/db mice; 100 mg/kg daily dose, standard drug, on 6th day): 28%
O=C1NC(=O)C(Cc2ccc(OC[C@@H]3CCCN3c3ccc4ccccc4n3)cc2)S1 (stereo partly drawn) [Example 12, 5-[4-[[1-(Quinolin-2-yl)-(2S)-pyrrolidin-2-yl]methoxy]phenylmethyl]thiazolidine-2,4-dione]	27%	49%			
O=C1NC(=O)C(Cc2ccc(OCC3CN(c4ccccn4)CCO3)cc2)S1 (stereo not drawn) [Example 27, 5-[4-[[4-(Pyridin-2-yl)morpholin-2yl]methoxy]phenylmethyl]thiazolidine-2,4-dione, sodium salt]			56%	29%	
O=C1NC(=O)C(=Cc2ccc(O[C@H]3CCN(c4ccccn4)C3)cc2)S1 [Example 23, 5-[4-[1-(Pyridin-2-yl)-(3S)-pyrrolidin-3-yloxy]phenylmethylene]thiazolidine-2,4-dione, hydrochloride salt]			46%	10%	
O=C1NC(=O)C(=Cc2ccc(OC[C@@H]3CCCN3c3ccccn3)cc2)S1 [Example 7, 5-[4-[[1-(Pyridin-2-yl)-(2S)-pyrrolidin-2-yl]methoxy]phenylmethylene]thiazolidine-2,4-dione, hydrochloride salt]	67%	43%			
O=C1NC(=O)C(=Cc2ccc(OC[C@@H]3CCCN3c3ccccn3)cc2)S1 [Example 6, 5-[4-[[1-(Pyridin-2-yl)-(2S)-pyrrolidin-2-yl]methoxy]phenylmethylene]thiazolidine-2,4-dione, maleic acid salt]			49%	71%	gross macroscopic and microscopic changes of heart, lungs, bone marrow, kidneys and spleen (rats; 28 days): No gross macroscopic and microscopic changes of heart, lungs, bone marrow, kidneys and spleen were observed; mortality (rats; 28 days): did not produce any mortality; Organ Weight, Heart (rats; 28 days, Control 0.59 ± 0.09): 0.61 ± 0.08 g; RBC (rats; 28 days, Control 7.33 ± 0.75): 7.08 ± 0.93 × 10^6 /mm^3; WBC (rats; 28 days, Control 8.08 ± 2.01): 9.19 ± 2.11 × 10^3 /mm^3; Hemoglobin (rats; 28 days, Control 15.18 ± 0.69): 14.88 ± 0.46 gm/dl; PVC (rats; 28 days, Control 52.06 ± 2.58): 52.21 ± 2.67%; hematological and biochemical parameters, deviations from control (rats; end of 28 days treatment): no significant deviations from the control were observed in hematological and biochemical parameters
Cc1cc(N2CCC[C@H]2COc2ccc(CC3SC(=O)NC3=O)cc2)nc2ccccc12 (stereo partly drawn) [Example 20, 5-[4-[[1-(Lepidin-2-yl)-(2S)-pyrrolidin-2-yl]methoxy]phenylmethyl]thiazolidine-2,4-dione, sodium salt]	30%	62%			
